Reference: patent US7396645B1, “Cholestasis signature” (priority 2002, dated 2008)
Marks after values point to notes of the source that are not given here.

system: Cholestasis Signature; conditions: rat liver expression data vs Cholestasis Signature; maximum score of training treatments normalised to 100; dose and time not given
Procedure: After determination of the MTD and FED for a compound, each compound was dissolved in a vehicle for administration on day 1 of the study (additional daily doses were stored as frozen aliquots from this initial formulation). Each compound was administered to three individual male Sprague-Dawley rats for each of the two doses (MTD and FED) for one of four different times (0.25 day, 1 day, 3 days, and 5 days), yielding a total of up to 24 animals per compound study. Vehicle choice was based on solubility of the compound, effect of food on adsorption, and the vehicles used in the literature reports examined during the FED selection investigations, described above. Generally, the route and vehicle in which the FED was defined are used. When there was a choice of routes and vehicles, oral routes were chosen over injection routes. Many compounds, especially oncolytics, are only administerable intravenously. In such cases, the compound was administered as an intravenous formulation into the tail vein. Orally administered compounds were given dissolved in either water, 1% carboxymethycellulose (CMC) or corn oil. Intravenously and intraperitoneally administered compounds were given in 0.9% saline. Subcutaneously administered compounds were given in corn oil. Animal body weights were determined at 1 day and, where appropriate, at 4 days, before necropsy, and clinical observations were made on a daily basis. Control animals were dosed with vehicle only. Three male animals were used for each dose and time combination used for the compound treatment.
Tissue Harvest and Handling: After the allocated treatment time, the tissues from the animals were harvested. […] All the tissues collected were divided to provide samples for histopathological analyses, and the remainder of each tissue was then snap-frozen. […] The parameters were measured using a Hitachi-911 clinical chemistry analysis instrument according to the manufacturer's instructions. The following blood constituents were measured: Blood Urea Nitrogen (BUN), Creatinine (CRE), Glucose (GLU), Alanine Transaminase (ALT), Aspartate Aminotrans-ferase (AST), Alkaline Phosphatase (ALP), Total Bilirubin (TBI), Sodium (SOD), Potassium (POT), Chloride (CHL), Phosphorus (PHO), Total Protein (TPR), Albumin (ALB), Cholesterol (CHO), Creatine Phosphokinase (CPK), Lactate Dehydrogenase (LDH), Carbon Dioxide (CO2), Uric Acid (UA), and Lipase. […] The parameters were measured using a Baker 9000 blood cell analysis instrument according to the manufactures instructions. The following blood constituents were measured: Leukocyte count (WBC), Differential Leukocyte counts, Erythrocyte count (RBC), Hemoglobin concentration (HGB), Hematocrit (HCT), Mean Corpuscular Volume (MCV), Mean Corpuscular Hemoglobin (MCH), Mean Corpuscular Hemoglobin Concentration (MCC), Thrombocyte Count (PLC). Histopathology: Histopathological analyses of hematoxylin and eosin-stained tissue sections were performed and peer-reviewed by board-certified (Diplomate, American College of Veterinary Pathologists) veterinary pathologists. Preparation of Enriched mRNA: Punch Biopsies were Taken from the Frozen Tissues and were completely homogenized before being processed using the MagNA Pure robot. (Roche Diagnostics Corp., Indianapolis, Ind.) in combination with the MagNA Pure LC RNA Isolation kit II (Roche Diagnostics Corp). The amount of lysis buffer was adjusted to allow 1 ml per 50 mg for liver tissue, or 1 ml per 80 mg for all other tissues. After complete homogenization and before loading of the samples into the 32-well MagNA Pure plate, the samples were syringed 5-6 times using a 20-gauge 3-ml syringe to ensure a smooth solution for robotic processing. Tissue sample processing was performed in duplicate wells (loading 150 μl of homogenized sample and 150 μl of additional lysis buffer to each well) of the MagNA Pure LC, which is programmed to extract mRNA using oligo-dT selection technology into a final elution volume of 100 μl.

Row | SMILES | Sequence Projection Score (SPS)
1 | S=C=Nc1cccc2ccccc12 [1-NAPHTHYL ISOTHIOCYANATE, 1-naphthyl isothiocyanate] | 90**
2 | CCCCCCCCc1ccc(O)cc1 [4-OCTYLPHENOL] | 22
3 | C[C@]12CCC(=O)C=C1CC[C@@H]1[C@@H]2CC[C@@]2(C)[C@H]1CC[C@]2(C)O [17-METHYLTESTOSTERONE] | 36*
4 | ClC(Cl)(Cl)Cl [CARBON TETRACHLORIDE] | 50*
5 | CN(C)C=O [N,N-DIMETHYLFORMAMIDE] | 27*

same assay, conditions: rat, in vivo

Row | SMILES | Sequence Projection Score (SPS)
6 | CC1=C(CC(=O)O)c2cc(F)ccc2/C1=C\c1ccc([S+](C)[O-])cc1 (stereo not drawn) | 45*
7 | C[C@]12CC[C@@H]3c4ccc(O)cc4CC[C@H]3[C@@H]1CC[C@@H]2O [BETA ESTRADIOL] | 26*
8 | CC(C)(Oc1ccc(CCNC(=O)c2ccc(Cl)cc2)cc1)C(=O)O [BEZAFIBRATE] | 42*
9 | Oc1c(Cl)cc(Cl)cc1Sc1cc(Cl)cc(Cl)c1O [BITHIONOL] | 23*
10 | COCc1c(C(C)C)nc(C(C)C)c(/C=C/[C@@H](O)C[C@@H](O)CC(=O)O)c1-c1ccc(F)cc1 [CERIVASTATIN] | 36*
11 | CCOC(=O)C(C)(C)Oc1ccc(Cl)cc1 [CLOFIBRATE] | 22
12 | C[C@@H]1C[C@H]2[C@@H]3CCC4=CC(=O)C=C[C@]4(C)[C@@]3(F)[C@@H](O)C[C@]2(C)[C@@]1(O)C(=O)CO [DEXAMETHASONE] | 32*
13 | O=C(O)Cc1ccccc1Nc1c(Cl)cccc1Cl [DICLOFENAC] | 41*
14 | C[C@]12CC[C@@H]3c4ccc(O)cc4CC[C@H]3[C@@H]1C[C@@H](O)[C@@H]2O [ESTRIOL] | 27*
15 | C#C[C@]1(O)CC[C@H]2[C@@H]3CCc4cc(O)ccc4[C@H]3CC[C@@]21C [ETHINYLESTRADIOL] | 61*
16 | CC(C)OC(=O)C(C)(C)Oc1ccc(C(=O)c2ccc(Cl)cc2)cc1 [FENOFIBRATE] | 43*
17 | OC(Cn1cncn1)(Cn1cncn1)c1ccc(F)cc1F [FLUCONAZOLE] | 63*
18 | CC(C)n1c(/C=C/C(O)CC(O)CC(=O)O)c(-c2ccc(F)cc2)c2ccccc21 (stereo not drawn) [FLUVASTATIN] | 67*
19 | CC(C)Cc1ccc(C(C)C(=O)O)cc1 (stereo not drawn) [IBUPROFEN] | 33*
20 | COc1ccc2c(c1)c(CC(=O)O)c(C)n2C(=O)c1ccc(Cl)cc1 [INDOMETHACIN] | 52*
21 | CCC(C)n1ncn(-c2ccc(N3CCN(c4ccc(OCC5COC(Cn6cncn6)(c6ccc(Cl)cc6Cl)O5)cc4)CC3)cc2)c1=O (stereo not drawn) [ITRACONAZOLE] | 17
22 | CC(=O)N1CCN(c2ccc(OCC3COC(Cn4ccnc4)(c4ccc(Cl)cc4Cl)O3)cc2)CC1 (stereo not drawn) [KETOCONAZOLE] | 21
23 | CC[C@H](C)C(=O)O[C@H]1C[C@@H](C)C=C2C=C[C@H](C)[C@H](CC[C@@H]3C[C@@H](O)CC(=O)O3)[C@H]21 [LOVASTATIN] | 37*
24 | Cc1cnc(NC(=O)C2=C(O)c3ccccc3S(=O)(=O)N2C)s1 [MELOXICAM] | 31*
25 | CN(Cc1cnc2nc(N)nc(N)c2n1)c1ccc(C(=O)N[C@@H](CCC(=O)O)C(=O)O)cc1 [METHOTREXATE] | 17
26 | CC#C[C@]1(O)CC[C@H]2[C@@H]3CCC4=CC(=O)CCC4=C3[C@@H](c3ccc(N(C)C)cc3)C[C@@]21C [MIFEPRISTONE] | 39*
27 | COc1ccc2cc([C@H](C)C(=O)O)ccc2c1 [NAPROXEN] | 48*
28 | CS(=O)(=O)Nc1ccc([N+](=O)[O-])cc1Oc1ccccc1 [NIMESULIDE] | 38*
29 | C#C[C@]1(OC(C)=O)CC[C@H]2[C@@H]3CCC4=CC(=O)CC[C@@H]4[C@H]3CC[C@@]21C [NORETHINDRONE ACETATE] | 23*
30 | CS(=O)(=O)c1ccc(C2=C(c3ccccc3)C(=O)OC2)cc1 [ROFECOXIB] | 27*
